Patent publication US5795864A (priority 1995, dated 1998)
Bridge positions count the residues as written; N and C are the ends. Square brackets hold non-standard residues; d marks the D form. Peptide text beside a SMILES is read from it. Hyp = O=C(O)[C@@H]1C[C@@H](O)CN1

Target: OCT MVIIA (SNX-111) binding site (site 1) (Rattus norvegicus, UniProt Q02294)
Assay: biochemical

Chain of OCT MVIIA (SNX-111) binding site (site 1) (Q02294 whole entry, looked up): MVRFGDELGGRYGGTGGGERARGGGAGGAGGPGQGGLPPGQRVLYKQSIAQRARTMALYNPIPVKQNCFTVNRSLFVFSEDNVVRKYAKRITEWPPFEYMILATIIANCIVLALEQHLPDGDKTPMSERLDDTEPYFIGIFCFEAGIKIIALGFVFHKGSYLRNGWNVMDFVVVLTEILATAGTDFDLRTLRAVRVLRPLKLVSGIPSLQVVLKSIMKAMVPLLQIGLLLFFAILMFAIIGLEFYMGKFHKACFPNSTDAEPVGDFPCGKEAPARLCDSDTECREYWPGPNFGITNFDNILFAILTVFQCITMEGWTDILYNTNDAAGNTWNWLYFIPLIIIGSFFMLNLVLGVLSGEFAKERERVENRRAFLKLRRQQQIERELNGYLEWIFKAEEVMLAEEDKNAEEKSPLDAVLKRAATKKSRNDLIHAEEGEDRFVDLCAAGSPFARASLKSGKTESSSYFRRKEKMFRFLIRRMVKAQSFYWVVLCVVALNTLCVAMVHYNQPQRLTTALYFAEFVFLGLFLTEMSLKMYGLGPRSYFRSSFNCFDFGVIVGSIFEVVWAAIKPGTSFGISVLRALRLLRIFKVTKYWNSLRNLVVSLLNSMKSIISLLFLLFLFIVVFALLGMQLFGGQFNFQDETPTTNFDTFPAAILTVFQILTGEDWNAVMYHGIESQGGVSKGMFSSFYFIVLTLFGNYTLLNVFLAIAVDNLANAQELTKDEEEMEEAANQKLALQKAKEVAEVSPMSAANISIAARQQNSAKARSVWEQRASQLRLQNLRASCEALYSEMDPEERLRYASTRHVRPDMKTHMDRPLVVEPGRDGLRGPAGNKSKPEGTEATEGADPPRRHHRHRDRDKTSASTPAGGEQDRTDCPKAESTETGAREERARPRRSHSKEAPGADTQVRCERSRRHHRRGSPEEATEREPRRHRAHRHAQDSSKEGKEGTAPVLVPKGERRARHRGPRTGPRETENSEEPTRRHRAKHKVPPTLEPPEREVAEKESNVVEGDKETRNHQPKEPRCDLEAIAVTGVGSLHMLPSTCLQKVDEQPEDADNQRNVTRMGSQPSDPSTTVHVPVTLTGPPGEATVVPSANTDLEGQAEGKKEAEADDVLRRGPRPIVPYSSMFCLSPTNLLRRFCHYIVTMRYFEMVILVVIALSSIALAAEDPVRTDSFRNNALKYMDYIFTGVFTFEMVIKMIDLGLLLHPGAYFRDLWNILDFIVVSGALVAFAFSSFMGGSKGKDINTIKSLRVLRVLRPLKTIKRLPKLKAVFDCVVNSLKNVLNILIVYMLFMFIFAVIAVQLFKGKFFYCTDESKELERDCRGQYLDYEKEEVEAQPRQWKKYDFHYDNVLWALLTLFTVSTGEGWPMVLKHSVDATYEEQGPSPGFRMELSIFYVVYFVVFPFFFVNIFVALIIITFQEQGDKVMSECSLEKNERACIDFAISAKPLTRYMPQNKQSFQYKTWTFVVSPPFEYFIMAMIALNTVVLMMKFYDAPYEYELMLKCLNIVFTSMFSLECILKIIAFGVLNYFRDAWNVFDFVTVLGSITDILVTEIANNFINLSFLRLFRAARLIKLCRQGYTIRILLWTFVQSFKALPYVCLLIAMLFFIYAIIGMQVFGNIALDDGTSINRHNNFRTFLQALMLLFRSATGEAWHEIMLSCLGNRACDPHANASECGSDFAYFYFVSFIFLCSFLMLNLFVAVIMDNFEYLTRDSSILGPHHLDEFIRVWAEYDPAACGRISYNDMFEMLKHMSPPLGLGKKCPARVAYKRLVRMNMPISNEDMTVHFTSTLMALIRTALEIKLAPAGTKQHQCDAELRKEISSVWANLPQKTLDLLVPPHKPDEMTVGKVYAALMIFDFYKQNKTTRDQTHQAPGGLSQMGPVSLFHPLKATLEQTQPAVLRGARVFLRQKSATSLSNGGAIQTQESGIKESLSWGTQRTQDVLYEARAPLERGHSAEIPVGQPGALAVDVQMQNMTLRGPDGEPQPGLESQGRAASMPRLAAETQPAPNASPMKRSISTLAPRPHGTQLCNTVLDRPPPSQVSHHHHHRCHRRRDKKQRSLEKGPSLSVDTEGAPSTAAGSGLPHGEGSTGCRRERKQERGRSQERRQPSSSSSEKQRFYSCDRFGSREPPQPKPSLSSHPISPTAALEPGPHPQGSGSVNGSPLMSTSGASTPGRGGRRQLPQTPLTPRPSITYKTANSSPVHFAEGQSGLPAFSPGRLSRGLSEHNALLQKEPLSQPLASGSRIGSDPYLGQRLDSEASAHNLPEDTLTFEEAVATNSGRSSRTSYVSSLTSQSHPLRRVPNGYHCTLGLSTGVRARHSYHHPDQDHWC

Structure (SMILES): CC[C@H](C)[C@@H]1NC(=O)[C@H](CO)NC(=O)[C@H]([C@@H](C)O)NC(=O)[C@H](C(C)C)NC(=O)CNC(=O)[C@@H]2CSSC[C@@H]3NC(=O)[C@H](CCCNC(=N)N)NC(=O)CNC(=O)[C@H](CSSC[C@H](N)C(=O)N[C@@H](CCCNC(=N)N)C(=O)N[C@@H](CO)C(=O)N[C@@H](CO)C(=O)NCC(=O)N[C@@H](CO)C(=O)N4C[C@H](O)C[C@H]4C(=O)N2)NC(=O)[C@H](CSSC[C@@H](C(=O)N[C@H](C(N)=O)[C@@H](C)O)NC(=O)[C@H](CCCCN)NC(=O)CNC(=O)[C@H](CCCNC(=N)N)NC(=O)[C@H](Cc2ccc(O)cc2)NC3=O)NC1=O [SNX-157] (H-CRSSGS[Hyp]CGVTSICCGRCYRGKCT-NH2; disulfide 1-15, 8-18, 14-23)
- IC50: 1460 nM
